Measurements from ChEMBL document CHEMBL4689842, “EUbOPEN Chemogenomics Library wave 1” (2021).

Experiments:
Type in all cases: toxicity, cell-based
U2OS = experiment: Incucyte cell viability with U2OS; conditions: human, 10 µM, compound concentration 10 uM
HEK-293T = experiment: Incucyte cell viability with HEK293T; conditions: human, 10 µM, compound concentration 10 uM
Fibroblast = experiment: Incucyte cell viability with human fibroblast; conditions: 10 µM, compound concentration 10 uM
[1] = 0 h, replicate number 1, timepoint 0 hours
[2] = 6 h, replicate number 1, timepoint 6 hours
[3] = 12 h, replicate number 1, timepoint 12 hours
[4] = 18 h, replicate number 1, timepoint 18 hours
[5] = 18 h, replicate number 2, timepoint 18 hours
[6] = 24 h, replicate number 1, timepoint 24 hours
[7] = 6 h, replicate number 2, timepoint 6 hours
[8] = 12 h, replicate number 2, timepoint 12 hours
[9] = 24 h, replicate number 2, timepoint 24 hours
[10] = 0 h, replicate number 2, timepoint 0 hours
Note: filed as whole numbers so only -1 and 0 and 1 occur.

| SMILES | Growth Rate (U2OS; [1]) | Growth Rate (U2OS; [2]) | Growth Rate (U2OS; [3]) | Growth Rate (U2OS; [4]) | Growth Rate (U2OS; [6]) | Growth Rate (HEK-293T; [1]) | Growth Rate (HEK-293T; [2]) | Growth Rate (HEK-293T; [3]) | Growth Rate (HEK-293T; [8]) | Growth Rate (HEK-293T; [4]) | Growth Rate (HEK-293T; [6]) | Growth Rate (HEK-293T; [9]) | Growth Rate (Fibroblast; [1]) | Growth Rate (Fibroblast; [2]) | Growth Rate (Fibroblast; [3]) | Growth Rate (Fibroblast; [4]) | Growth Rate (Fibroblast; [6]) | Growth Rate (Fibroblast; [9]) | Growth Rate (U2OS; [10]) | Growth Rate (Fibroblast; [5]) | other results |
| --- | --- | --- | --- | --- | --- | --- | --- | --- | --- | --- | --- | --- | --- | --- | --- | --- | --- | --- | --- | --- | --- |
| CCCCN(CCCC)C(=O)CN1C[C@H](c2cc(OC)c3c(c2)OCO3)[C@@H](C(=O)O)[C@@H]1CC(C)(C)CCC.Cc1ccc(S(=O)(=O)O)cc1 | 0 | 0 | 1 | 0 | 1 | 0 | 1 | 1 | 0 | 1 | 1 | 0 | 0 | 1 | 1 | 1 | 0 | 1 | – | – | Growth Rate (U2OS; [5]): 1; Growth Rate (HEK-293T; [7]): 0; Growth Rate (HEK-293T; [5]): 0 |
| CNC(=O)c1ccccc1Nc1cc(Nc2ccc(N3CCOCC3)cc2OC)ncc1C(F)(F)F [VS-4718] | 1 | 0 | 0 | 0 | 0 | – | 0 | 0 | – | 0 | 0 | – | 0 | – | – | 1 | 0 | 1 | 0 | – | – |
| CS(=O)(=O)NCC[C@H](NC(=O)c1cncc2c1cnn2-c1ccc(F)cc1)c1ccnc(S(C)(=O)=O)c1 [BI 9307] | 0 | – | 1 | 1 | 1 | 0 | 1 | 1 | – | 1 | 1 | – | 0 | – | – | – | – | 0 | – | 1 | Growth Rate (Fibroblast; [7]): 0; Growth Rate (Fibroblast; [8]): 0 |
| Cc1nc(NC(=O)N2CCC[C@H]2C(N)=O)sc1-c1ccnc(C(C)(C)C(F)(F)F)c1 [ALPELISIB] | 1 | 1 | 1 | 0 | 0 | – | 0 | – | 0 | 1 | 1 | – | 1 | – | 1 | 1 | 1 | 0 | 0 | 0 | Growth Rate (U2OS; [5]): 1; Growth Rate (U2OS; [9]): 1; Growth Rate (Fibroblast; [10]): 0; Growth Rate (Fibroblast; [7]): 1; Growth Rate (Fibroblast; [8]): 0 |
| C=CC(=O)Nc1ccc2[nH]c(=O)n(C3CCN(C(=O)c4ccc(-c5nc6cc[nH]c(=O)c6cc5-c5ccccc5)cc4)CC3)c2c1 | – | 1 | 1 | 1 | 1 | 0 | – | – | – | – | – | 1 | 0 | – | 1 | 1 | 1 | – | 0 | – | – |
| N[C@@H](Cc1cc(I)c(Oc2ccc(O)c(I)c2)c(I)c1)C(=O)O [LIOTHYRONINE] | 0 | – | 1 | 1 | 1 | 0 | 1 | 1 | 0 | 1 | 1 | 0 | 0 | 0 | 0 | 0 | 0 | 1 | – | 1 | Growth Rate (U2OS; [7]): 1; Growth Rate (HEK-293T; [5]): 0 |
| C=C(c1ccc(C(=O)O)cc1)c1cc2c(cc1C)C(C)(C)CCC2(C)C [BEXAROTENE] | 0 | – | 1 | 1 | 1 | 1 | 0 | 0 | 1 | 0 | 0 | – | 0 | – | 1 | 1 | 1 | – | -1 | – | Growth Rate (HEK-293T; [10]): 0; Growth Rate (HEK-293T; [7]): 1 |
| CC(C)(C(=O)O)c1ccc(C(O)CCCN2CCC(C(O)(c3ccccc3)c3ccccc3)CC2)cc1.Cl (stereo not drawn) [FEXOFENADINE HYDROCHLORIDE] | – | – | 1 | 1 | 1 | 1 | 1 | 1 | – | 1 | 1 | – | 0 | 0 | 0 | 0 | 0 | 1 | 0 | 1 | Growth Rate (U2OS; [7]): 0; Growth Rate (U2OS; [5]): 0; Growth Rate (U2OS; [9]): 0; Growth Rate (HEK-293T; [10]): 0; Growth Rate (Fibroblast; [10]): 1; Growth Rate (Fibroblast; [8]): 1 |
| CC(C)c1onc(-c2c(Cl)cccc2Cl)c1COc1ccc(/C=C/c2cccc(C(=O)O)c2)c(Cl)c1 | 0 | – | 1 | 1 | 1 | 0 | 1 | 0 | 1 | 0 | 0 | – | 0 | 1 | 1 | 0 | 0 | 1 | – | 1 | Growth Rate (Fibroblast; [10]): 1 |
| C[C@@H]1CN(c2cc(-c3n[nH]c4ccc(OC5(C)CC5)cc34)ncn2)C[C@H](C)O1 [MLi-2] | – | 1 | 1 | 1 | 1 | 0 | 0 | 1 | – | 1 | 1 | 0 | 0 | 1 | 1 | 1 | 0 | – | 0 | 0 | Growth Rate (HEK-293T; [10]): 1; Growth Rate (Fibroblast; [7]): 0; Growth Rate (Fibroblast; [8]): 0 |
